Measurements from patent publication US9873883B2, “Glyphosate resistant plants and associated methods” (Dow AgroSciences LLC, priority 2012, dated 2018).

What was measured:
[1] = test system: T4 Arabidopsis plants containing dgt-14 spiked into wildtype; experiment: dgt-14 as a selectable marker with glyphosate selection; type: in vivo, Arabidopsis thaliana; conditions: applied 7 and 11 DAP, scored 17 DAP
Description: The use of dgt-14 as a selectable marker for glyphosate selection agent is tested with the Arabidopsis transformed plants described above. Approximately 50 T4 generation Arabidopsis seed (homozygous for dgt-14) are spiked into approximately 5,000 wildtype (sensitive to glyphosate) seed. The seeds are germinated and plantlets are sprayed with a selecting dose of glyphosate. Several treatments of glyphosate are compared; each tray of plants receives either one or two application timings of glyphosate in one of the following treatment schemes: 7 DAP (days after planting), 11 DAP, or 7 followed by 11 DAP. Since all plants also contain a glufosinate resistance gene in the same transformation vector, dgt-14 containing plants selected with glyphosate can be directly compared to DSM-2 or pat containing control plants selected with glufosinate.
Glyphosate treatments are applied with a DeVilbiss spray tip as previously described. Transgenic plants containing dgt-14 are identified as “resistant” or “sensitive” 17 DAP. […] Sensitive and resistant plants are counted and the number of glyphosate tolerant plants is found to correlate with the original number of transgenic seed containing the dgt-14 transgene which are planted.

[2] = test system: untransformed B104 maize line; experiment: Growth inhibition dosage response in maize callus culture; type: cell-based, Zea mays
T0 corn = experiment: Postemergence herbicide tolerance in dgt-14 transformed T0 corn; type: in vivo, Zea mays; conditions: example written in present tense
Description: T0 events are allowed to acclimate in the greenhouse and are grown until two to four new, normal looking leaves emerge from the whorl (i.e., plants that transition from tissue culture to greenhouse growing conditions). Plants are grown at 27° C. under 16 hour light:8 hour dark conditions in the greenhouse. The plants are then treated with commercial formulations of Durango DMA™ (containing the herbicide glyphosate) with the addition of 2% w/v ammonium-sulfate. Herbicide applications are made with a track sprayer at a spray volume of 187 L/ha, 50-cm spray height. T0 plants are sprayed with a range of glyphosate from 280-4480 g ae/ha glyphosate, which is capable of significant injury to untransformed corn lines. A lethal dose is defined as the rate that causes >95% injury to the B104 inbred.
Selected T0 plants are selfed or backcrossed for further characterization in the next generation. Additional experiments include a 100 plant progeny test which is conducted on chosen dgt-14 lines containing the T1 plants. All plants are sprayed with 140-1120 g ae/ha glufosinate or 105-1680 g ae/ha glyphosate as previously described. […] At fourteen DAT, resistant and sensitive plants are counted to determine the percentage of lines that segregated as a single locus, dominant Mendelian trait (3R:1S) as determined by Chi square analysis. […]

[3] = test system: Non-transformed control Arabidopsis (cv. Columbia); experiment: Postemergence glyphosate tolerance, visual injury; type: in vivo, Arabidopsis thaliana; conditions: 2 weeks after application
Text: (§1) Transgenic T1 Arabidopsis plants containing the dgt-14 transgene were sprayed with differing rates of glyphosate. A distribution of varying concentrations of glyphosate rates, including elevated rates, were applied in this study to determine the relative levels of resistance (105, 420, 1,680 or 3,360 g ae/ha). The typical 1× field usage rate of glyphosate is 1,120 g ae/ha. The T1 Arabidopsis plants that were used in this study were variable in copy number for the dgt-14 transgene. The low copy dgt-14 T1 Arabidopsis plants were identified using the molecular confirmation assays described above, and self-pollinated and used to produce T2 plants.
(§2) The Arabidopsis T1 transformants were first selected from the background of untransformed seed using a glufosinate selection scheme. Three flats or 30,000 seed were analyzed for each T1 construct. The T1 plants selected above were molecularly characterized and the plants were subsequently transplanted to individual pots and sprayed with various rates of commercial glyphosate as previously described. The dose response of these plants is presented in terms of % visual injury 2 weeks after treatment (WAT). […] An arithmetic mean and standard deviation is presented for each construct used for Arabidopsis transformation. The range in individual response is also indicated in the last column for each rate and transformation. Wildtype, non-transformed Arabidopsis (c.v. Columbia) served as a glyphosate sensitive control.
(§3) Selected T1 Arabidopsis plants which were identified to contain low-copy numbers of transgene insertions (1-3 copies) were self-fertilized to produce a second generation for additional assessment of glyphosate tolerance. […] In the T2 generation hemizygous and homozygous plants were available for testing for each event and therefore were included for each rate of glyphosate tested. Hemizygous plants contain two different alleles at a locus as compared to homozygous plants which contain the same two alleles at a locus. The copy number and ploidy levels of the T2 plants were confirmed using the molecular analysis protocols previously described. Likewise, glyphosate was applied using the methods and rates as previously described. The dose response of the plants is presented in terms of % visual injury 2 weeks after treatment (WAT). […] An arithmetic mean and standard deviation are presented for each construct used for Arabidopsis transformation. The range in individual response is also indicated in the last column for each rate and transformation. Wildtype, non-transformed Arabidopsis (cv. Columbia) served as a glyphosate sensitive control. In addition, plants comprising a glyphosate herbicide resistance gene, dgt-1 (as described in U.S. patent Ser. No. 12/558,351, incorporated herein by reference in its entirety) were included as a positive control.
(§4) Randomly selected T2 Arabidopsis plants which were identified to contain low-copy numbers of transgene insertions (1-3 copies) were self-fertilized to produce a third generation for additional assessment of glyphosate tolerance. Arabidopsis seed from the third generation (T3) were planted and evaluated for glyphosate tolerance using the same protocols as previously described. […] These Events were assayed via LC-MS-MS to confirm that the plants expressed the DGT-14 protein. […] Exemplary resistant T3 Events comprised dgt-14 linked with TraP8 v2 (pDAB105526), TraP9 v2 (pDAB105527), TraP12 v2 (pDAB105528) and TraP13 v2 (pDAB105529).

[4] = test system: Arabidopsis transformed with TraP5 v1::dgt-14 (pDAB102787); experiment: Postemergence glyphosate tolerance, visual injury; type: in vivo, Arabidopsis thaliana; conditions: 2 weeks after application
Text: as §1, §2, §3, §4

## O=C(O)CNCP(=O)(O)O [glyphosate, N-(phosphonomethyl)glycine]
[1]
  effective selection for transgenic plants: 26.25-1680 g ae/ha
[2]
  glyphosate concentrations sufficient to inhibit cell growth: ≥ 0.25 mM
T0 corn
  glyphosate concentration controlling non-transformed plants: ≥ 280 g ae/ha
[3]; T1 study, 105 g ae/ha
  Visual % injury (Ave): 100.0%
[3]; T1 study, 420 g ae/ha
  Visual % injury (Ave): 100.0%
[3]; T1 study, 1680 g ae/ha
  Visual % injury (Ave): 100.0%
[3]; T1 study, 3360 g ae/ha
  Visual % injury (Ave): 100.0%
[3]; T2 study, 420 g ae/ha
  Visual % injury (Ave): 100.0%
[3]; T2 study, 1680 g ae/ha
  Visual % injury (Ave): 100.0%
[3]; T2 study, 3360 g ae/ha
  Visual % injury (Ave): 100.0%
[3]; T3 study, 420 g ae/ha
  Visual % injury (Ave): 100.0%
[3]; T3 study, 1680 g ae/ha
  Visual % injury (Ave): 100.0%
[3]; T3 study, 3360 g ae/ha
  Visual % injury (Ave): 100.0%
[4]; T1, 105 g ae/ha
  Visual % injury (Ave): 64.0%
[4]; T1, 420 g ae/ha
  Visual % injury (Ave): 99.0%
[4]; T1, 1680 g ae/ha
  Visual % injury (Ave): 100.0%
[4]; T2, 420 g ae/ha
  Visual % injury (Ave): 90.0%
[4]; T2, 1680 g ae/ha
  Visual % injury (Ave): 88.8%
[4]; T2, 3360 g ae/ha
  Visual % injury (Ave): 94.5%
[4]; T3, 420 g ae/ha
  Visual % injury (Ave): 85.0%
[4]; T3, 1680 g ae/ha
  Visual % injury (Ave): 93.7%
[4]; T3, 3360 g ae/ha
  Visual % injury (Ave): 93.7%
